Assays:
in vivo = conditions: mouse, in vivo, ip
Protocol: (§1) Neurotoxicity of the claimed agents was also assessed in mice (i.p. administration) by the rotorod ataxia test and/or in rats (p.o. administration) by positional sense test and gait stance test. […] The term quantitating the neurotoxicity is the medial neurological toxic dose (TD50), was determined in the above tests.

[1] = Neurotoxicity in rats, positional sense test and gait stance test; conditions: rat, in vivo, po
Protocol: as §1

rats [2] = test: Maximal electroshock (MES) model, rats; conditions: Rattus norvegicus, po, read-out: RATS MES 50
mice = test: Maximal electroshock (MES) model, mice; conditions: Mus musculus, ip, read-out: MICE MES ED50
hypoxic rat [3] = test: Passive avoidance test in hypoxic rat, Experiment 3A; format: in vivo; conditions: hypoxic rats
Protocol: Wistar male rats, 15-19 month-old, were exposed to a single hypoxic episode as described above. […] The passive avoidance test was performed on day 13 after initiation the drug treatment. The apparatus consisted of a lit chamber that can be separated from a dark chamber by a sliding door. At training, a rat is placed in the lit chamber for 30 seconds, then the door is opened. The rat moves to the dark chamber after a short delay—the latency, that is recorded. Upon entry into the dark chamber, the door is shut closed and a 0.3-mA footshock is delivered for 3 seconds by a Grass S-88 stimulator. Retention of the experience is determined after 48 hours by repeating the test and recording the latency to an arbitrary maximum of 300 seconds. Longer latencies are ascribed to retention of memory and improved cognition.

hypoxic rat [4] = test: Amphetamine-induced stereotype behavior in hypoxic rat, Experiment 2A; format: in vivo; conditions: hypoxic group, with respect to hypoxia and amphetamine control
Protocol: (§2) Wistar male rats, 15-19 month-old, were exposed to a single hypoxic episode as described above. […] Rats pretreated for 29 days with daily doses of the test drugs (0.5 mg/kg), received a sub-cutaneous (s.c.) injection of D-amphetamine sulfate at a dose of 0.5 mg/kg. D-amphetamine is known to cause an enhancement of the effects of CNS dopamine by a mechanism involving dopamine release, and blockage of its uptake and its metabolism by MAO. The behavioral manifestation of amphetamine action is a stereotypic pattern of lateral head movements. Counts of lateral head movements were taken over two successive intervals of 1 min each, 45-60 min after the injection of amphetamine and then averaged.

rats [5] = test: Closed head injury in rats, Experiment 4C (dose range); format: in vivo, rat; conditions: doses 0.03 mg/kg to 3 mg/kg
Protocol: (§3) After the second evaluation of motor function, the animals were sacrificed and the brains were removed. A piece of tissue was weighed to yield a wet weight (WW), then dried in an oven for 24 hours at 95 C. and re-weighed to yield a dry weight(DW). Percentage water content in the tissue was calculated as (WW-DW)×100/WW.

hypoxic rat [6] = test: α-MpT-induced hypokinesia in hypoxic rat, Experiment 1A; format: in vivo; conditions: hypoxia group, ten hour observation
Protocol: Wistar male rats, 15-19 month-old, were exposed to a single hypoxic episode which is assumed to decrease the level of dopamine in the brain. […] The drugs were administered by gavage, using a special syringe equipped with rounded tip that could be directed into the stomach. The dose was contained in 0.3-0.5 mL of distilled water. The rats were pretreated for 70-80 days with daily doses of the test drugs and received intra-peritoneal (i.p.) α-MpT (α-methyl-p-tyrosine) at a dose of 100 mg/kg in 0.3-0.5 mL saline. Controls received saline. α-MpT is assumed to inhibit the formation of L-Dopa from tyrosine and, consequently the formation of dopamine itself. Lack of central dopamine is expressed as hypokinesia. Following the injection of α-MpT, motor activity was recorded for the duration of 10 hours. Locomotion scores were taken in seven fully-computerized cages (26×25 cm) having a grid of infra-red beams at 4 cm-intervals.
Crossing of a beam initiated an electric signal which was fed into a computer. The number of crossings over a given period provided a measure of locomotion.
The records gave two data categories: (a) “small movements” originating in stationary activities such as grooming and scratching and (b) “big movements” originating in ambulation and recorded as the simultaneous crossing of more than two beams. “Total movements” include both categories.
Counts of motor activity in the presence of α-MpT were related as percent with respect to counts in its absence in the corresponding control group (unlesioned or hypoxia-lesioned). Motor activity counts of drug-treated rats were related to the hypoxia saline-treated as 100%. All behavioral tests were performed 90-120 min. after administration of the last dose of the test compound.

MAO-B = biological target: T1, MAO-B (Rattus norvegicus, UniProt P19643); conditions: RAI: only chronic treatment; deprenyl: acute or chronic treatment
T1 sequence (P19643 1-520): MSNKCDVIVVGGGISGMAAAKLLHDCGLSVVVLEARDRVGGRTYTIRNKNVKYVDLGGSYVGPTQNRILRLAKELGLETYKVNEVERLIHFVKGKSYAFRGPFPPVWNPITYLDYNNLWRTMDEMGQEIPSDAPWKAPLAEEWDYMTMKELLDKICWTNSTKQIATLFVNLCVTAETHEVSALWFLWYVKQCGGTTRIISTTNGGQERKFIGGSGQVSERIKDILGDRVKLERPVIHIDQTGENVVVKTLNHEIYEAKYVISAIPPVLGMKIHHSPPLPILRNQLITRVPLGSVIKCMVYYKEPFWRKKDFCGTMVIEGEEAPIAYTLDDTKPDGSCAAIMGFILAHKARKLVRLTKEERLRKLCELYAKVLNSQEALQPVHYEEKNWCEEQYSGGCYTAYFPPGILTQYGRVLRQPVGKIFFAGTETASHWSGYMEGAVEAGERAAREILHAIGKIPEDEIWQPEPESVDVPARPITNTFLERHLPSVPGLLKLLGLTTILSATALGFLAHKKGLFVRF
From the text: (§4) The brains of some rats from each experimental group in Exp. 1 (chronic treatment of 80 days) and Exp. 2 (acute treatment of 14 days) were ex vivo analyzed for MAO-A and MAO-B activity.

MAO-A = biological target: T2, MAO-A (Rattus norvegicus, UniProt P21396); conditions: chronic or acute treatment
T2 sequence (P21396 1-526): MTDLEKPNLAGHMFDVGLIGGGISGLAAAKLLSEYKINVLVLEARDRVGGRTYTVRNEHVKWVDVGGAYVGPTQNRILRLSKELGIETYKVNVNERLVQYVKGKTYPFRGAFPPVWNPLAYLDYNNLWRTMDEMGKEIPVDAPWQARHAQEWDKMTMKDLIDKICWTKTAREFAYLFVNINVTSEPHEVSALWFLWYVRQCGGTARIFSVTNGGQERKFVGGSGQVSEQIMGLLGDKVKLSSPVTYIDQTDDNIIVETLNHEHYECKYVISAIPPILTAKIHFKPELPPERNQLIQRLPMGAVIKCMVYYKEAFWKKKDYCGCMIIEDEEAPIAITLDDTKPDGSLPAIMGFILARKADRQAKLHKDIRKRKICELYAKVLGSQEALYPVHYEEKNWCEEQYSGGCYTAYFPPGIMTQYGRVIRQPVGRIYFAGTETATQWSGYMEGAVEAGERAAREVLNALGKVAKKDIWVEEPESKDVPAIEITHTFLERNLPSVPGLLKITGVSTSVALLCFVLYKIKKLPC
From the text: as §4

hypoxia-lesioned rats = test: Water maze working memory test, Experiment 3B; format: in vivo, rat; conditions: rat, in vivo
From the text: The apparatus used consists of a circular water tank 160 cm in diameter filled with water to a depth of 38 cm. The water was made cloudy by the addition of milk powder. A clear Plexiglass 15 cm platform, supported by a movable stand rest on the bottom of the tank was submerged to a depth of 2 cm from the water surface. Normally a swimming rat cannot perceive the location of the platform but it may recall it from a previous experience and training, unless it suffers from some memory impairment. The time taken to locate the platform is measured in seconds and referred to as the latency. During the experiment all orientational cues such as ceiling lights etc. remained unchanged. Longer latencies are observed with rats with some impairment to their memory.
Each rat was given two trails a day for four days, entering the pool from the same point of entry each day. The position of the platform was changed daily to one of four predetermined positions. Each rat was tested twice each day over the four days, referred to as runs 1 and 2 on sessions I-IV. Initially the rat was placed on the platform for 60 seconds. It was then removed and placed at the point of entry and allowed a maximum of 120 seconds to locate the platform (run 1). The second run for that day followed 60 seconds later (run 2). In the second run the rat is expected to find the platform much sooner, having benefitted from its earlier experience. […] The average latency of run 1 in four sessions on four different days was then related to the corresponding parameter of run 2. The smaller the ratio of […], the better the short range learning score.
Table 8. […] The data are the latencies in seconds±SEM that it took a given group to locate a submerged and invisible platform the location of which was shifted from one session to the other. The time interval between sessions was one day, and that between successive runs was 60 seconds. (n=7-8 rats per group)

rats [7] = test: Closed head injury in rats, Experiment 4D (times of administration); format: in vivo, rat; conditions: RAI 1 mg/kg; times of administration: 0, 4, 8, 12 h
Protocol: as §3

hypoxic rat [8] = test: Amphetamine-induced stereotype behavior in hypoxic rat, Experiment 2B; format: in vivo
Protocol: as §2
The procedure of the second Experiment 2B was similar to the one used in Experiment 2A with the following changes:
1) Animals: 12 month-old rats.
The drugs were given by i.p. injection.
3) Duration of the treatment: 14 days.

rats [9] = test: Closed head injury in rats, Experiment 4E (therapeutic window); format: in vivo, rat; conditions: 1 mg/kg
Protocol: as §3

Row | SMILES | melting point | TD50 (in vivo) | TD50 [1] | ED50 (rats [2]) | ED50 (mice) | passive avoidance performance, in words (hypoxic rat [3]) | potentiation of stereotypic behavior induced by amphetamine, in words (hypoxic rat [4]) | dose at which a maximal response was observed (rats [5]) | effect on hypokinetic syndrome, big movements, in words (hypoxic rat [6]) | effect on MAO-B activity, in words (MAO-B) | effect on MAO-A activity, in words (MAO-A) | water maze performance versus hypoxia group, in words (hypoxia-lesioned rats) | % water in the brain (rats [7]) | potentiation of stereotypic behavior (lateral head movements), in words (hypoxic rat [8]) | effectiveness when given after induction of head trauma, in words (rats [9])
1 | CC(=O)NC1CCc2ccc(F)cc21 (racemic) [Compound 22, (rac)-6-Fluoro-N-acetyl-1-aminoindan] | 139 to 141 °C | > 100 mg/kg | > 50 mg/kg | < 50 mg/kg | < 100 mg/kg | – | – | – | – | – | – | – | – | – | –
2 | N[C@@H]1CCc2ccccc21 [R-AI, (R)-1-aminoindan] | – | – | – | – | – | improved their performance to control level | significant potentiation | 0.3 mg/kg | corrected the hypokinetic syndrome | can partially inhibit | does not have an effect on MAO-A activity | tended towards superior performance | 81.5 ± 0.5% | significant potentiation | still effective even if given 3 hours after the induction of head trauma
